According to US4075194A, “Novel synthetic undecapeptide and clinical assay” (Yeda Research and Development Co., Ltd., priority 1976, dated 1978):
Ends that are not written are not given here.

Assays:
anti-CEA(1-11)-BSA serum = assay: Inhibition of inactivation of CEA(1-11)-T4 by anti-CEA(1-11)-BSA serum; format: binding, rabbit; details: for inhibition of the inactivation of CEA(1-11)-T4: in words
Procedure: Inactivation and Inhibition of Inactivation of CEA(1-11)-coated T4 Bacteriophage. The preparation of CEA(1-11)-coated T4 bacteriophage was carried out according to the procedure described by Haimovich et al., Biochim. Biophys. Acta 207 (1970) 115, making use of glutaraldehyde as crosslinking agent. The resulting modified bacteriophage preparation was tested for inactivation with anti-CEA(1-11)-BSA serum, by incubation for 21/2 hr at 37° in the presence of different dilutions of the antiserum, and monitoring the surviving phage by subsequent plating with bacteria.
In inhibition experiments the inhibitors were allowed to react at room temperature, overnight, with the amount of antiserum that would have caused approximately 90% inactivation of the bacteriophage conjugate, Haimovich et al. Biochim. Biophys. Acta 207 (1970) 125. The modified bacteriophage was then added to the mixture and the number of surviving phage was determined as described above. The percentage of inhibition was calculated from the extent of inactivation in the presence and in the absence of the inhibitor.

[1] = Immunization of rabbits, antibody production; format: in vivo, rabbit; details: intradermal in complete Freund's adjuvant, in words
Procedure: Immunization Procedure. Antisera against the CEA(1-11) peptide were obtained by immunizing rabbits with CEA(1-11) as the free peptide and with the two conjugates CEA(1-11)-A--L and CEA(1-11)-BSA. The rabbits were immunized by multisite intradermal injections in complete Freund's adjuvant. Each rabbit received two injections of 4 mg at 2-week intervals and was subsequently bled weekly from the marginal vein, starting 1 week after the last injection.

[2] = tested on: antisera agglutinating CEA(1-11)-A--L-coated sheep erythrocytes; assay: Inhibition of passive hemagglutination; format: binding; details: serum concentration twice that of the hemagglutination titer
Procedure: Hemagglutination and Inhibition of Hemagglutination. Sheep erythrocytes were treated with formalin, tanned, and coated with the CEA(1-11) peptide or with the conjugates (CEA(1-11)-A--L or CEA(1-11)-BSA, Herbert: Handbook Exp. Immun., Oxford (1964), 720, Blackwell, Sci. Pub.
Passive microhemagglutination tests, Kabat: Structural Concepts in Immun. and Immunochem. (1968), Holt, Reinhart and Winston, Inc., N.Y., were performed on disposable microtiter plates (Cooke Engineering Co., Alexandira, Va.) by 2-fold serial dilutions of antisera in phosphate-buffered saline (0.15 M NaCl-0.01 M sodium phosphate buffer, pH 7.0), containing 0.1% ovalbumin (twice crystallized, Schwarz/Mann). The plates were incubated at room temperature and read after 2 and 4 hr.
In inhibition experiments serial dilutions of the respective inhibitor were allowed to react for 30 min with the antisera (at the last dilution that had given positive agglutination) prior to the addition of the coated erythrocytes. Inhibition results were also read after 2 and 4 hr.

Row | Molecule | inhibition of the inactivation of CEA(1-11)-T4 (anti-CEA(1-11)-BSA serum) | Inhibition (%) (anti-CEA(1-11)-BSA serum; inhibitor concentration 0.001 μg/ml) | Inhibition (%) (anti-CEA(1-11)-BSA serum; inhibitor concentration 0.0033 μg/ml) | Inhibition (%) (anti-CEA(1-11)-BSA serum; inhibitor concentration 0.01 μg/ml) | Inhibition (%) (anti-CEA(1-11)-BSA serum; inhibitor concentration 0.033 μg/ml) | Inhibition (%) (anti-CEA(1-11)-BSA serum; inhibitor concentration 0.1 μg/ml) | Inhibition (%) (anti-CEA(1-11)-BSA serum; inhibitor concentration 0.33 μg/ml) | Inhibition (%) (anti-CEA(1-11)-BSA serum; inhibitor concentration 1 μg/ml) | Inhibition (%) (anti-CEA(1-11)-BSA serum; inhibitor concentration 3 μg/ml) | antibody production on immunization [1] | lowest concentration of inhibitor that still prevents agglutination ([2]; antiserum against CEA(1-11)-A--L) [µg/mL] | lowest concentration of inhibitor that still prevents agglutination ([2]; antiserum against CEA(1-11)-BSA) [µg/mL] | lowest concentration of inhibitor that still prevents agglutination ([2]; antiserum against Crude CEA) [µg/mL] | lowest concentration of inhibitor that still prevents agglutination ([2]; antiserum against Pure CEA) [µg/mL]
1 | LNFPTSEITLK [CEA(1-11), synthetic undecapeptide corresponding to the first eleven NH2-terminal residues of CEA, with leucine replacing valine in the 11-position] | could be inhibited | 0 | 38 | 64 | 82 | 92 | 100 | 98 | 100 | antisera of low titer | 1 | 10 | 100 | 1
2 | Pure CEA: carcinoembryonic antigen purified from colonic tumor tissue by perchloric acid extraction, chromatography and block electrophoresis (protein, UniProt P06731 35-685, looked up) Cell adhesion molecule CEACAM5: KLTIESTPFNVAEGKEVLLLVHNLPQHLFGYSWYKGERVDGNRQIIGYVIGTQQATPGPAYSGREIIYPNASLLIQNIIQNDTGFYTLHVIKSDLVNEEATGQFRVYPELPKPSISSNNSKPVEDKDAVAFTCEPETQDATYLWWVNNQSLPVSPRLQLSNGNRTLTLFNVTRNDTASYKCETQNPVSARRSDSVILNVLYGPDAPTISPLNTSYRSGENLNLSCHAASNPPAQYSWFVNGTFQQSTQELFIPNITVNNSGSYTCQAHNSDTGLNRTTVTTITVYAEPPKPFITSNNSNPVEDEDAVALTCEPEIQNTTYLWWVNNQSLPVSPRLQLSNDNRTLTLLSVTRNDVGPYECGIQNELSVDHSDPVILNVLYGPDDPTISPSYTYYRPGVNLSLSCHAASNPPAQYSWLIDGNIQQHTQELFISNITEKNSGLYTCQANNSASGHSRTTVKTITVSAELPKPSISSNNSKPVEDKDAVAFTCEPEAQNTTYLWWVNGQSLPVSPRLQLSNGNRTLTLFNVTRNDARAYVCGIQNSVSANRSDPVTLDVLYGPDTPIISPPDSSYLSGANLNLSCHSASNPSPQYSWRINGIPQQHTQVLFIAKITPNNNGTYACFVSNLATGRNNSIVKSITVSASGTSPGLSA | No inhibition | – | – | – | – | – | – | – | – | – | – | – | – | –
